Measurements from patent US20210267944A1 (BioXcel Therapeutics, Inc., priority 2018, published 2021).
Where a name gives a salt, the structure may show the parent alone.

Assay: clinical
Conditions: human, in vivo
Method: These samples were assayed for the concentration of the drug in those participants randomized to test product.

For `Cc1cccc([C@H](C)c2cnc[nH]2)c1C` [dexmedetomidine hydrochloride], the “Time to reach Cmax, range” value was 60 to 150 min, the “maximum dexmedetomidine concentrations, range” value was 102 to 380 pg/mL and the Plasma concentrations (0 h) was 0 ng/mL. The Plasma concentrations (2 h) was 0.31805 ng/mL, the concentration at 0 h (Plasma concentrations) was 0 µg/mL and the concentration at 2 h (Plasma concentrations) was 0.378 ng/mL.
